According to PubChem BioAssay AID1918933 (Molecular Pharmacology Branch, DTP, NCI, 2023):

System: 186277-243-T-J2-PDC complex spheroid viability
Experiment: Anticancer human tumor 186277-243-T-J2-PDC patient-derived colon adenocarcinoma cell line growth inhibition
Conditions: for IC50: curve of first compound; for viability, T/C: stronger effect = lower value
Excerpt: Multicellular complex tumor spheroid response to LSD1 Inhibitor Iadademstat in combination with a variety of drugs and investigational agents in selected tumor cell lines
The current study was undertaken to assess response to LSD1 inhibitors in combination with standard-of-care drugs and investigational agents in solid tumor complex spheroid models as well as in the K-562 leukemia. Complex spheroids include a stromal component modeled by human endothelial cells (HUVEC) and fibroblasts modeled by human mesenchymal stem cells (MSCs). The concentration ranges selected for each drug and investigational agent were based upon clinically achievable concentrations if the clinical Cmax of the agent was known.
Compounds. The drugs and investigational agents used in this study are listed on Table 1. All of the agents used, including staurosporine (NSC755774) and gemcitabine (NSC613327), were obtained from the Developmental Therapeutics Program, NCI. FDA-approved anticancer drugs are available from the NCI at http://dtp.nci.nih.gov/branches/dscb/oncology_drugset_explanation.html. Drugs and investigational agents were >95% pure by proton nuclear magnetic resonance (NMR) and liquid chromatography/mass spectrometry (LC/MS). Stock solutions were prepared at 400x in DMSO, stored at -70 degrees C, and diluted in fresh medium prior to their use. The final concentration of DMSO in cell culture wells never exceeded 0.25% (v/v). The FDA-approved anticancer drug set is available from the Developmental Therapeutics Program at https://dtp.cancer.gov/organization/dscb/obtaining/available_plates.htm. All drugs and investigational agents were tested over a range starting from a high concentration at or near the clinical Cmax and decreasing in half-log increments. If the clinical Cmax for an agent had not been determined, the highest concentration tested was 10 microM.
Cell Lines. The patient-derived cancer cell (PDC) lines: 292921-168-R-J2-PDC, K24384-001-R-PDC, and 521955-158-R2-J5-PDC pancreatic carcinomas, 556581-035-R-J1 ovarian carcinoma, 324938-238-R-J1-PDC, 855422-203-R-J1-PDC and 883617-216-R-J1-PDC urothelial bladder carcinomas, 743489-274-T-PDC renal cell carcinoma, 138582-R-J1 Merkel cell tumor, K60290-347-R-J1 and K57222-313-R-J1-PDC glioblastomas, 653999-131-R-J2-PDC, LG0703-F948-PDC, and 349418-098-R-PDC non-small cell lung carcinomas, 885512-296-R-J2-PDC, 171881-019-R-J1-PDC breast carcinomas and 186277-243-T-J2-PDC and 233499-124-R-J2-PDC colon carcinomas were obtained from the NCI Patient-Derived Models Repository (PDMR, https://pdmr.cancer.gov). The established cell lines NCI/ADR-RES (RRID:CVCL_14520 and OVCAR-5 (RRID:CVCL_1628) ovarian carcinomas, 786-O (RRID:CVCL_1051) and A498 (RRID:CVCL_A498) renal cell carcinoma, NCI-H211 (ATCC, cat. CRL-5824; RRID:CVCL_1529), NCI-H196 (ATCC, cat. CRL-5823, RRID:CVCL_1509), SW 1271 (ATCC, cat. CRL-2177, RRID:CVCL_1716) and NCI-H1876 (ATCC, cat. CRL-5902, RRID:CVCL_1503) small cell lung carcinomas, MDA-MB-231 (RRID:CVCL_0062) and MDA-MB-468 (RRID:CVCL_0419)breast carcinomas (10-12). Pooled donor human umbilical vein endothelial cells (HUVEC, Lonza, cat. CC-2519) and human mesenchymal stem cells (hMSC, Lonza, cat. PT-2501) were purchased from Lonza (Walkersville, MD).
Cell Culture. All cells were maintained in an incubator at 37 degrees C and 5% CO2 with 95% humidity. The PDC lines were cultured according to standard operating procedures established by the NCI PDMR (https://pdmr.cancer.gov). Briefly all PDCs were thawed and cultured in Matrigel-coated flasks prepared with a working solution of 1X Ham's F-12 nutrient mix, without supplementation (Invitrogen, Waltham, MA, cat. 11765054), 100 U/mL penicillin-streptomycin (Invitrogen, cat. 15140122), and 2.5% Matrigel (Corning Inc., Corning, NY, cat. 354248) for the first three passages. […]

[1] = second compound 0.1 µM, first compound 0.000949 µM
[2] = second compound 0.1 µM, first compound 0.003 µM
[3] = second compound 0.1 µM, first compound 0.00949 µM
[4] = second compound 0.1 µM, first compound 0.03 µM
[5] = second compound 0.1 µM, first compound 0.0949 µM
[6] = second compound 0.1 µM, first compound 0.3 µM
[7] = second compound 0.316 µM, first compound 0.000949 µM
[8] = second compound 0.316 µM, first compound 0.003 µM
[9] = second compound 0.316 µM, first compound 0.00949 µM
[10] = second compound 0.316 µM, first compound 0.03 µM
[11] = second compound 0.316 µM, first compound 0.0949 µM
[12] = second compound 0.316 µM, first compound 0.3 µM
[13] = second compound 1 µM, first compound 0.000949 µM
[14] = second compound 1 µM, first compound 0.003 µM
[15] = second compound 1 µM, first compound 0.00949 µM
[16] = second compound 1 µM, first compound 0.03 µM
[17] = second compound 1 µM, first compound 0.0949 µM
[18] = second compound 1 µM, first compound 0.3 µM
[19] = second compound 3.16 µM, first compound 0.000949 µM
[20] = second compound 3.16 µM, first compound 0.003 µM
[21] = second compound 3.16 µM, first compound 0.00949 µM
[22] = second compound 3.16 µM, first compound 0.03 µM
[23] = second compound 3.16 µM, first compound 0.0949 µM
[24] = second compound 3.16 µM, first compound 0.3 µM
[25] = second compound 10 µM, first compound 0.000949 µM
[26] = second compound 10 µM, first compound 0.003 µM
[27] = second compound 10 µM, first compound 0.00949 µM
[28] = second compound 10 µM, first compound 0.03 µM
[29] = second compound 10 µM, first compound 0.0949 µM
[30] = second compound 10 µM, first compound 0.3 µM
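Further: 7 day exposure to compounds.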
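Wherever viability, T/C is given: 100% = DMSO vehicle control viability.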

CCc1c2c(nc3ccc(O)cc13)-c1cc3c(c(=O)n1C2)COC(=O)[C@]3(O)CC + NC1CC1c1ccc(-c2cccc(O)c2)cc1
IC50 (second compound 0.1 µM): < 0.949 nM | IC50 (second compound 0.316 µM): < 0.949 nM | IC50 (second compound 1 µM): < 0.949 nM | IC50 (second compound 3.16 µM): < 0.949 nM | IC50 (second compound 10 µM): < 0.949 nM | viability, T/C [1]: 41.8% | viability, T/C [2]: 30.3% | viability, T/C [3]: 21.5% | viability, T/C [4]: 3.91% | viability, T/C [5]: 1.18% | viability, T/C [6]: 0.24% | viability, T/C [7]: 43.1% | viability, T/C [8]: 29.9% | viability, T/C [9]: 22.4% | viability, T/C [10]: 3.45% | viability, T/C [11]: 0.15% | viability, T/C [12]: 0.17% | viability, T/C [13]: 42.2% | viability, T/C [14]: 28.3% | viability, T/C [15]: 24.3% | viability, T/C [16]: 3.43% | viability, T/C [17]: 0.22% | viability, T/C [18]: 0.17% | viability, T/C [19]: 42.7% | viability, T/C [20]: 29% | viability, T/C [21]: 24% | viability, T/C [22]: 3.34% | viability, T/C [23]: 0.22% | viability, T/C [24]: 0.16% | viability, T/C [25]: 35.4% | viability, T/C [26]: 23.4% | viability, T/C [27]: 17.3% | viability, T/C [28]: 1.73% | viability, T/C [29]: 0.19% | viability, T/C [30]: 0.23%

Nc1ccn(C2OC(CO)C(O)C2(F)F)c(=O)n1 (stereo not given) + NC1CC1c1ccc(-c2cccc(O)c2)cc1
IC50 (second compound 0.1 µM): 2.41 nM | IC50 (second compound 0.316 µM): 2.18 nM | IC50 (second compound 1 µM): 2.52 nM | IC50 (second compound 3.16 µM): 2.31 nM | IC50 (second compound 10 µM): 2.34 nM | viability, T/C [1]: 112% | viability, T/C [2]: 35.5% | viability, T/C [3]: 14.2% | viability, T/C [4]: 11.6% | viability, T/C [5]: 12.2% | viability, T/C [6]: 13.4% | viability, T/C [7]: 103% | viability, T/C [8]: 29.9% | viability, T/C [9]: 14.5% | viability, T/C [10]: 12% | viability, T/C [11]: 12.2% | viability, T/C [12]: 12.8% | viability, T/C [13]: 116% | viability, T/C [14]: 38.4% | viability, T/C [15]: 14.9% | viability, T/C [16]: 12.2% | viability, T/C [17]: 11.9% | viability, T/C [18]: 13.6% | viability, T/C [19]: 103% | viability, T/C [20]: 34.3% | viability, T/C [21]: 15.8% | viability, T/C [22]: 11.7% | viability, T/C [23]: 13.8% | viability, T/C [24]: 13.4% | viability, T/C [25]: 98.2% | viability, T/C [26]: 36.7% | viability, T/C [27]: 15.5% | viability, T/C [28]: 11.2% | viability, T/C [29]: 12.7% | viability, T/C [30]: 13.5%

O=C(c1cc(Cc2n[nH]c(=O)c3ccccc23)ccc1F)N1CCN(C(=O)C2CC2)CC1 + NC1CC1c1ccc(-c2cccc(O)c2)cc1
IC50 (second compound 0.1 µM): > 10000 nM | IC50 (second compound 0.316 µM): > 10000 nM | IC50 (second compound 1 µM): > 10000 nM | IC50 (second compound 3.16 µM): > 10000 nM | IC50 (second compound 10 µM): > 10000 nM | viability, T/C (second compound 0.1 µM, first compound 0.0316 µM): 98.8% | viability, T/C (second compound 0.1 µM, first compound 0.1 µM): 89.7% | viability, T/C (second compound 0.1 µM, first compound 0.316 µM): 95.4% | viability, T/C (second compound 0.1 µM, first compound 1 µM): 103% | viability, T/C (second compound 0.1 µM, first compound 3.16 µM): 122% | viability, T/C (second compound 0.1 µM, first compound 10 µM): 107% | viability, T/C (second compound 0.316 µM, first compound 0.0316 µM): 101% | viability, T/C (second compound 0.316 µM, first compound 0.1 µM): 101% | viability, T/C (second compound 0.316 µM, first compound 0.316 µM): 110% | viability, T/C (second compound 0.316 µM, first compound 1 µM): 92.6% | viability, T/C (second compound 0.316 µM, first compound 3.16 µM): 121% | viability, T/C (second compound 0.316 µM, first compound 10 µM): 98.5% | viability, T/C (second compound 1 µM, first compound 0.0316 µM): 106% | viability, T/C (second compound 1 µM, first compound 0.1 µM): 92.7% | viability, T/C (second compound 1 µM, first compound 0.316 µM): 97.4% | viability, T/C (second compound 1 µM, first compound 1 µM): 95.1% | viability, T/C (second compound 1 µM, first compound 3.16 µM): 120% | viability, T/C (second compound 1 µM, first compound 10 µM): 106% | viability, T/C (second compound 3.16 µM, first compound 0.0316 µM): 84.6% | viability, T/C (second compound 3.16 µM, first compound 0.1 µM): 101% | viability, T/C (second compound 3.16 µM, first compound 0.316 µM): 95.8% | viability, T/C (second compound 3.16 µM, first compound 1 µM): 103% | viability, T/C (second compound 3.16 µM, first compound 3.16 µM): 115% | viability, T/C (second compound 3.16 µM, first compound 10 µM): 108% | viability, T/C (second compound 10 µM, first compound 0.0316 µM): 87.9% | viability, T/C (second compound 10 µM, first compound 0.1 µM): 92% | viability, T/C (second compound 10 µM, first compound 0.316 µM): 93.8% | viability, T/C (second compound 10 µM, first compound 1 µM): 85.4% | viability, T/C (second compound 10 µM, first compound 3.16 µM): 120% | viability, T/C (second compound 10 µM, first compound 10 µM): 98.5%
